Measured values: patent US20240317744A1, “Bicyclic Ureas As Kinase Inhibitors” (Incyte Corporation, priority 2023, published 2024)

Assays:
[1] = biological target: catalytic domain (JH1, amino acids 808-1132) of human JAK2 (Homo sapiens, UniProt O60674); experiment: JAK2 HTRF Enzyme Activity Assay; type: biochemical; settings: ATP 30 µM, 60 minutes at 25° C.; read-out: V617F ENZ 30 UM
[2] = biological target: T1, pseudo-kinase domain (JH2, amino-acids 536-812) of human V617F mutant JAK2 (Homo sapiens, UniProt O60674, F794H/V617F/W659A/W777A); experiment: JAK2 LanthaScreen JH2-V617F Binding Assay; settings: JAK2 JH2-V617F 0.26 nM, 50 nM tracer, 1 hour at 25° C.; read-out: JH2 BIND V617F
T1 construct: pseudo-kinase domain (JH2, amino-acids 536-812 with 3 surface mutations W659A, W777A, F794H); His (C); purchased BPS Bioscience 79498; host or cells: baculovirus expression system
How it was run: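 Biotinylated His-Avi-tagged construct, baculovirus-expressed, at 0.26 nM; compounds competed against 50 nM fluorescent JH2 tracer with 0.25 nM streptavidin-Tb in Tris pH 7.5 buffer. Non-specific binding defined with 2 mM ATP. Read after 1 h at 25° C by TR-FRET; IC50 from four-parameter fit.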

[3] = biological target: T2, catalytic domain (JH1, amino acids 826-1132) of human JAK2 (Homo sapiens, UniProt O60674); experiment: JAK2 LanthaScreen JH1 Binding Assay; settings: JAK2 JH1 1.5 nM, 50 nM tracer, 2 hours at 25° C.; read-out: JH1 BIND
T2 construct: catalytic domain (JH1, amino acids 826-1132) of human JAK2; FLAG (N); biotin (biotinylated); purchased Carna Biosciences 08-445-20N; host or cells: baculovirus expression system
How it was run: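 FLAG-tagged, biotinylated JAK2 JH1 (aa 826-1132, baculovirus-expressed; 1.5 nM) incubated 2 h at 25° C with compounds, 50 nM fluorescent tracer and 0.5 nM Streptavidin-Tb in Tris pH 7.5 buffer with MgCl2, Brij-35, BSA, EGTA, glycerol, DTT. Nonspecific binding defined with 2 mM ATP; TR-FRET IC50 from four-parameter fit.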

[4] = biological target: T3, pseudo-kinase domain (JH2, amino-acids 536-812) of human Wild Type JAK2 (Homo sapiens, UniProt O60674, F794H/W659A/W777A); experiment: JAK2 LanthaScreen JH2-WT Binding Assay; settings: JAK2 JH2-WT 0.145 nM, 50 nM tracer, 1 hour at 25° C.; read-out: JH2 BIND WT
T3 construct: pseudo-kinase domain (JH2, amino-acids 536-812 with 3 surface mutations W659A, W777A, F794H); His (C); purchased BPS Bioscience 79463; host or cells: baculovirus expression system
How it was run: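 Biotinylated C-terminal His-Avi-tagged JH2 (residues 536-812, baculovirus-expressed) at 0.145 nM was incubated with serially diluted compounds, 50 nM fluorescent JAK2-JH2 tracer and 0.25 nM streptavidin-Tb cryptate in pH 7.5 Tris buffer with MgCl2, Brij-35, BSA, EGTA, glycerol and DTT. LanthaScreen TR-FRET was read after 1 hour at 25° C; IC50 came from four-parameter fits.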

T2 sequence (O60674 826-1132): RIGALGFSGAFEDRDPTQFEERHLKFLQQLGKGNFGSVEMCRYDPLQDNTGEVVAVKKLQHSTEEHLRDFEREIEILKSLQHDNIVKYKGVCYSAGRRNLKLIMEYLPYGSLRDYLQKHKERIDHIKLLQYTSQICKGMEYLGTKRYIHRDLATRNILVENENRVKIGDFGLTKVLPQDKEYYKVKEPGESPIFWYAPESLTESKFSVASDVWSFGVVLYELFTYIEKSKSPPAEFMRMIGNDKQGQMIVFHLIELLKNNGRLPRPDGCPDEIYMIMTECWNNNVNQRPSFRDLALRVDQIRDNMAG
Chain of catalytic domain (JH1, amino acids 808-1132) of human JAK2 (O60674 808-1132 limits assumed): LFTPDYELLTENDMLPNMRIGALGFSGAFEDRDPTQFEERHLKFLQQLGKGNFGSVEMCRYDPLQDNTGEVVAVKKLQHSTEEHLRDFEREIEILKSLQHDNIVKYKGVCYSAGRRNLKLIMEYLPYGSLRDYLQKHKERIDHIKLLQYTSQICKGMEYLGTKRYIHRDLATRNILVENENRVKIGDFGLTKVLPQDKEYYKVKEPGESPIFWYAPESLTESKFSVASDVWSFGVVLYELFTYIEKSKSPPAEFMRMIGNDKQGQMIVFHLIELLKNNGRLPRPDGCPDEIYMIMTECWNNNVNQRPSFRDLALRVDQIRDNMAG
T3 sequence (O60674 536-812 W659A/W777A/F794H): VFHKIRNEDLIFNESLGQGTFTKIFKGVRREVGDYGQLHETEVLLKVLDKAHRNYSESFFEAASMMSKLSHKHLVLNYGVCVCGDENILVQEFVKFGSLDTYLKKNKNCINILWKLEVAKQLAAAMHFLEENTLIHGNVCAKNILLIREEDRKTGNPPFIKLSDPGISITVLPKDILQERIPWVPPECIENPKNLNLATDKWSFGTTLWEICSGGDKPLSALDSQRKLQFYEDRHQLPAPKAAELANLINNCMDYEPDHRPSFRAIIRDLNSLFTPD
T1 sequence (O60674 536-812 V617F/W659A/W777A/F794H): as the sequence (O60674 536-812 W659A/W777A/F794H) above, with V82F counted along it

| SMILES | IC50 [1] | IC50 [2] | IC50 [3] | IC50 [4] |
| --- | --- | --- | --- | --- |
| [2H]C([2H])([2H])n1c(=O)n([C@@H]2CC[C@@H](NC(=O)OC)C2)c2cc(Nc3cc(C(=O)N4CC5CC5(O)C4)c4cccc(C(F)(F)F)c4n3)ncc21 (stereo partly drawn) [Example 10, Methyl ((1R,3R)-3-(6-((4-(1-hydroxy-3-azabicyclo[3.1.0]hexane-3-carbonyl)-8-(trifluoromethyl)quinolin-2-yl)amino)-3-(methyl-d3)-2-oxo-2,3-dihydro-1H-imidazo[4,5-c]pyridin-1-yl)cyclopentyl)carbamate] | 100 to 500 nM | ≤ 10 nM | 500 to 1000 nM | ≤ 10 nM |
| COC(=O)N[C@@H]1CC[C@@H](n2c(=O)n(C)c3cnc(Nc4cc(C)nc(N5CCC(F)(F)C5)n4)cc32)C1 [Example 84, Methyl ((1R,3R)-3-(6-((2-(3,3-difluoropyrrolidin-1-yl)-6-methylpyrimidin-4-yl)amino)-3-methyl-2-oxo-2,3-dihydro-1H-imidazo[4,5-c]pyridin-1-yl)cyclopentyl)carbamate] | > 1000 nM | ≤ 10 nM | > 1000 nM | ≤ 10 nM |
| COC(=O)N[C@@H]1CC[C@@H](n2c(=O)n(C)c3cnc(Nc4cccc(-c5ccc(CO)c(C)c5)n4)cc32)C1 [Example 4, Methyl ((1R,3R)-3-(6-((6-(4-(hydroxymethyl)-3-methylphenyl)pyridin-2-yl)amino)-3-methyl-2-oxo-2,3-dihydro-1H-imidazo[4,5-c]pyridin-1-yl)cyclopentyl)carbamate] | > 1000 nM | ≤ 10 nM | > 1000 nM | ≤ 10 nM |
| [2H]C([2H])([2H])n1c(=O)n([C@@H]2CC[C@@H](NC(=O)OC)C2)c2cc(Nc3cc(C(=O)N4CCOCC4)c4cc(C)cc(C(F)(F)F)c4n3)ncc21 [Example 135, Methyl ((1R,3R)-3-(3-(methyl-d3)-6-((6-methyl-4-(morpholine-4-carbonyl)-8-(trifluoromethyl)quinolin-2-yl)amino)-2-oxo-2,3-dihydro-1H-imidazo[4,5-c]pyridin-1-yl)cyclopentyl)carbamate] | 500 to 1000 nM | ≤ 10 nM | > 1000 nM | ≤ 10 nM |
| [2H]C([2H])([2H])n1c(=O)n([C@@H]2CC[C@@H](NC(=O)OC)C2)c2cc(Nc3cc(C(=O)N4CCOCC4)c4cccc(C(C)(C)C#N)c4n3)ncc21 [Example 96, Methyl ((1R,3R)-3-(6-((8-(2-cyanopropan-2-yl)-4-(morpholine-4-carbonyl)quinolin-2-yl)amino)-3-(methyl-d3)-2-oxo-2,3-dihydro-1H-imidazo[4,5-c]pyridin-1-yl)cyclopentyl)carbamate] | > 1000 nM | ≤ 10 nM | > 1000 nM | ≤ 10 nM |
| COC(=O)Nc1cc(Nc2cc3c(cn2)n(C)c(=O)n3C2CCC(C)(NC(=O)OC)CC2)cc(-c2cnn(C)c2)c1 (stereo not drawn) [Example 42, Methyl (3-((1-(4-((methoxycarbonyl)amino)-4-methylcyclohexyl)-3-methyl-2-oxo-2,3-dihydro-1H-imidazo[4,5-c]pyridin-6-yl)amino)-5-(1-methyl-1H-pyrazol-4-yl)phenyl)carbamate] | > 1000 nM | 10 to 100 nM | > 1000 nM | 10 to 100 nM |
| [2H]C([2H])([2H])n1c(=O)n([C@@H]2CC[C@@H](NC(=O)OC)C2)c2cc(Nc3cc(C(=O)N4CC[C@@H](F)C4)cc(-c4ccc5c(c4)OCCO5)n3)ncc21 [Example 80, Methyl ((1R,3R)-3-(6-((6-(2,3-dihydrobenzo[b][1,4]dioxin-6-yl)-4-((R)-3-fluoropyrrolidine-1-carbonyl)pyridin-2-yl)amino)-3-(methyl-d3)-2-oxo-2,3-dihydro-1H-imidazo[4,5-c]pyridin-1-yl)cyclopentyl)carbamate] | > 1000 nM | ≤ 10 nM | > 1000 nM | ≤ 10 nM |
| Cn1cc(-c2cc(NC(=O)OC3CCC3)cc(Nc3cc4c(cn3)n(C)c(=O)n4[C@@H]3CC[C@@H](NC(=O)OC4CCOCC4)C3)c2)cn1 [Example 48, Tetrahydro-2H-pyran-4-yl ((1R,3R)-3-(6-((3-((cyclobutoxycarbonyl)amino)-5-(1-methyl-1H-pyrazol-4-yl)phenyl)amino)-3-methyl-2-oxo-2,3-dihydro-1H-imidazo[4,5-c]pyridin-1-yl)cyclopentyl)carbamate] | > 1000 nM | 10 to 100 nM | > 1000 nM | 10 to 100 nM |
| [2H]C([2H])([2H])n1c(=O)n([C@@H]2CC[C@@H](NC(=O)OC)C2)c2cc(Nc3cc(C4CCN(C)CC4)cc(-c4ncc(C(F)(F)F)s4)n3)ncc21 [Example 157, Methyl ((1R,3R)-3-(3-(methyl-d3)-6-((4-(1-methylpiperidin-4-yl)-6-(5-(trifluoromethyl)thiazol-2-yl)pyridin-2-yl)amino)-2-oxo-2,3-dihydro-1H-imidazo[4,5-c]pyridin-1-yl)cyclopentyl)carbamate] | > 1000 nM | ≤ 10 nM | > 1000 nM | ≤ 10 nM |
| COC(=O)N[C@@H]1CC[C@@H](n2c(=O)n(C)c3cnc(Nc4cc(C)cc(-c5ccnc(OC)c5)n4)cc32)C1 [Example 67, Methyl ((1R,3R)-3-(6-((2′-methoxy-4-methyl-[2,4′-bipyridin]-6-yl)amino)-3-methyl-2-oxo-2,3-dihydro-1H-imidazo[4,5-c]pyridin-1-yl)cyclopentyl)carbamate] | > 1000 nM | ≤ 10 nM | > 1000 nM | ≤ 10 nM |
| COC(=O)Nc1cc(Nc2cc3c(cn2)n(C)c(=O)n3[C@@H]2CC[C@@H](NC(=O)OC)C2)cc(-c2cn(C)nn2)c1 [Example 14, Methyl (3-((1-((1R,3R)-3-((methoxycarbonyl)amino)cyclopentyl)-3-methyl-2-oxo-2,3-dihydro-1H-imidazo[4,5-c]pyridin-6-yl)amino)-5-(1-methyl-1H-1,2,3-triazol-4-yl)phenyl)carbamate] | > 1000 nM | 10 to 100 nM | > 1000 nM | ≤ 10 nM |
| [2H]C([2H])([2H])n1c(=O)n(C2CC3(CC(NC(=O)C4CC4)C3)C2)c2cc(Nc3cc(C(=O)N4CCOCC4)c4cccc(C(F)(F)F)c4n3)ncc21 (stereo not drawn) [Example 90, N-(6-(3-(Methyl-d3)-6-((4-(morpholine-4-carbonyl)-8-(trifluoromethyl)quinolin-2-yl)amino)-2-oxo-2,3-dihydro-1H-imidazo[4,5-c]pyridin-1-yl)spiro[3,3]heptan-2-yl)cyclopropanecarboxamide] | > 1000 nM | ≤ 10 nM | 100 to 500 nM | ≤ 10 nM |
| COC(=O)N[C@@H]1CC[C@@H](n2c(=O)n(C)c3cnc(Nc4cc(NC(=O)C5CCC5)cc(C5CCOCC5)c4)cc32)C1 [Example 19, Methyl ((1R,3R)-3-(6-((3-(cyclobutanecarboxamido)-5-(tetrahydro-2H-pyran-4-yl)phenyl)amino)-3-methyl-2-oxo-2,3-dihydro-1H-imidazo[4,5-c]pyridin-1-yl)cyclopentyl)carbamate] | > 1000 nM | ≤ 10 nM | > 1000 nM | ≤ 10 nM |
| [2H]C([2H])([2H])n1c(=O)n([C@@H]2CC[C@@H](NC(=O)OC)C2)c2cc(Nc3cc(CN4CC(C(F)F)C4)cc(-c4ncc(C(F)(F)F)s4)n3)ncc21 [Example 101, Methyl ((1R,3R)-3-(6-((4-((3-(difluoromethyl)azetidin-1-yl)methyl)-6-(5-(trifluoromethyl)thiazol-2-yl)pyridin-2-yl)amino)-3-(methyl-d3)-2-oxo-2,3-dihydro-1H-imidazo[4,5-c]pyridin-1-yl)cyclopentyl)carbamate] | > 1000 nM | ≤ 10 nM | > 1000 nM | ≤ 10 nM |
| [2H]C([2H])([2H])n1c(=O)n([C@@H]2CC[C@@H](NC(=O)OC)C2)c2cc(Nc3ccc(OC)c(-c4ncc(C(F)(F)F)s4)n3)ncc21 [Example 98, Methyl ((1R,3R)-3-(6-((5-methoxy-6-(5-(trifluoromethyl)thiazol-2-yl)pyridin-2-yl)amino)-3-(methyl-d3)-2-oxo-2,3-dihydro-1H-imidazo[4,5-c]pyridin-1-yl)cyclopentyl)carbamate] | > 1000 nM | ≤ 10 nM | > 1000 nM | ≤ 10 nM |
